According to patent publication US12187681B2 (Shanghai East Hospital, priority 2019, dated 2025):
Where a name gives a salt, the structure may show the parent alone.

Columns and labels:
Type in all cases: cell-based
[1] = target: T1, hERG (human ether-a-go-go related gene potassium channel, KCNH2) (Homo sapiens, UniProt Q12809); test: hERG channel whole-cell patch clamp (Ion Channel Activity Measurement); settings: human, room temperature; for inhibition at 1 μM: pH 7.4, 1 μM test article; for inhibition at 10 μM: pH 7.4, 10 μM test article
T1 construct: expressed in transfected cells; host or cells: HEK293
T1 sequence (Q12809 whole entry): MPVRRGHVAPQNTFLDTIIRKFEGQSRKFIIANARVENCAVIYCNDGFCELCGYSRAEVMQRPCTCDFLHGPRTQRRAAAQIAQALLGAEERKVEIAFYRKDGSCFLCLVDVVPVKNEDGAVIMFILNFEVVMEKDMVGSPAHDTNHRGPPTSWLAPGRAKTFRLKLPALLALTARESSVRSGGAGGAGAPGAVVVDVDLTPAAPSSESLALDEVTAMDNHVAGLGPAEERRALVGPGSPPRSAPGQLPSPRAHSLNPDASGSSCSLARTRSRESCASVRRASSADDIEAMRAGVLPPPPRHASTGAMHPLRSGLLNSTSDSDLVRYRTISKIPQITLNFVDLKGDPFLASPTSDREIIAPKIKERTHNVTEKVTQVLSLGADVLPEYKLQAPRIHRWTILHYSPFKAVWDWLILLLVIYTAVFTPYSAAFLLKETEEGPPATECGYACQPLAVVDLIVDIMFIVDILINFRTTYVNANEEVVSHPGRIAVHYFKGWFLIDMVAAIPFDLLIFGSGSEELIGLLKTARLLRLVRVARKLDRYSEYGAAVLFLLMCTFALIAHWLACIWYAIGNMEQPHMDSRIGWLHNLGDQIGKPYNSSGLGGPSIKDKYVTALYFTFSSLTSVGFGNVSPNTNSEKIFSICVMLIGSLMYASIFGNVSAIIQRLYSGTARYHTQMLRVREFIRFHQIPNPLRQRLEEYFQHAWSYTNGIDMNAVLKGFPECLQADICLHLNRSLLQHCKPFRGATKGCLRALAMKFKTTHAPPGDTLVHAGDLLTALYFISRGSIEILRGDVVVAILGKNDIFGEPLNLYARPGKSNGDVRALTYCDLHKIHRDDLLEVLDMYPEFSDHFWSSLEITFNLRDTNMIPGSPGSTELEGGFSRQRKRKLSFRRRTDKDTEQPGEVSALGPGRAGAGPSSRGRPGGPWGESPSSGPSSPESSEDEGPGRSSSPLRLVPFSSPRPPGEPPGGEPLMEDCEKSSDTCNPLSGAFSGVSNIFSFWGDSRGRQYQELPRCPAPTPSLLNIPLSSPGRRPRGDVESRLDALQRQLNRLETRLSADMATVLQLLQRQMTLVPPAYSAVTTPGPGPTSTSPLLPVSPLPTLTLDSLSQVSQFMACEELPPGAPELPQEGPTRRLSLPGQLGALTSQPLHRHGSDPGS
Summary of the method: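 HEK293 cells stably expressing hERG (NM_000238) were recorded by whole-cell patch clamp at 23-25° C. Holding potential −80 mV, step to 30 mV for 2.5 s, tail currents at −50 mV for 4 s, pulses every 10 s. Each concentration was perfused low to high for 5 min or to steady state, with each cell as its own control.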

[2] = target: T2, CaV1.2 (L-type voltage-dependent calcium channel; CACNA1C, CACNB2, CACNA2D1) (Homo sapiens, UniProt Q13936); test: CaV1.2 channel whole-cell patch clamp (Ion Channel Activity Measurement); settings: human, room temperature; for inhibition at 5 min, 1 μM: pH 7.4, 1 μM test article; for inhibition at 5 min, 10 μM: pH 7.4, 10 μM test article, read-out: CaV 1.2 10 μM (ion-channel inhibition)
T2 construct: expressed in transfected cells; host or cells: CHO
Summary of the method: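 Whole-cell patch clamp was run on CHO cells stably expressing CACNA1C/CACNB2/CACNA2D1 at 23–25 °C, with 10 mM CaCl2 TEA bath (pH 7.4) and CsCl pipette solution (pH 7.2). Currents were evoked from −80 mV to +10 mV for 0.3 s every 20 s without leak subtraction. Ascending concentrations were each applied for 5 min or until steady state.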

[3] = target: T3, Iks potassium channel (KCNQ1/KCNE1) (Homo sapiens, UniProt P51787); test: Iks channel whole-cell patch clamp (Ion Channel Activity Measurement); settings: human, CHO cells stably expressing Iks channel (KCNQ1 and KCNE1), room temperature; for inhibition at 5 min, 1 μM: pH 7.4, 1 μM test article; for inhibition at 5 min, 10 μM: pH 7.4, 10 μM test article
T3 construct: expressed in transfected cells; host or cells: CHO
T3 sequence (P51787 whole entry): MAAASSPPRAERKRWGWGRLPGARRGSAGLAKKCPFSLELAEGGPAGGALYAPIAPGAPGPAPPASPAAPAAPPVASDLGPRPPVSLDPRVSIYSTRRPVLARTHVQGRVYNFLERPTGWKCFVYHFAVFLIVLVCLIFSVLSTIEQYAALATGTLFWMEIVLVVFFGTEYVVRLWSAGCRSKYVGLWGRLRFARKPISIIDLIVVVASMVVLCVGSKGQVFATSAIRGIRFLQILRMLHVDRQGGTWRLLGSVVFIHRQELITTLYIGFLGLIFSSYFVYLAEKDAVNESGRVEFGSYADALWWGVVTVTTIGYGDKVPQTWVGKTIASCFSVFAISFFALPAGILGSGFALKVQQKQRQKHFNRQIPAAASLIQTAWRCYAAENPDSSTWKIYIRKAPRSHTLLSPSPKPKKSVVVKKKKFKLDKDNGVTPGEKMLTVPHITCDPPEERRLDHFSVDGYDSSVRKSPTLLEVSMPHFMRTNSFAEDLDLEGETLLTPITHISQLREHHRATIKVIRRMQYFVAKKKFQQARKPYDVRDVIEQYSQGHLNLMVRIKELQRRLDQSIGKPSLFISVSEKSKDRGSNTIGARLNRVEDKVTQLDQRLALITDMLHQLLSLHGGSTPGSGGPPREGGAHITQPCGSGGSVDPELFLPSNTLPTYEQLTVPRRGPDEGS
Description: CHO cell line stably expressing Iks potassium voltage-gated channel subfamily Q member 1(KCNQ1) and potassium voltage-gated channel subfamily E regulatory subunit 1 (KCNE1), cDNA strictly similar to GenBank accession number: NM_000218 and NM_000219
Cells expressing channels were cultured in medium supplemented with 20% FBS in HAM'S F12 culture dish. Cells grew in a humidified incubator at 37° C. under 5% carbon dioxide. To passage cells, remove poor medium and rinse the cells once with PBS 1X. […] Place plate on a 37° C. warming incubator 5 min. As soon as cells are detached, add 5 ml of 37° C. complete medium. Draw cell suspension into a sterile pipet and homogenize cells gently to dissociate cells aggregates. Amplify or maintain the cells by seeding 2.5*105 cells in a 6 cm dish (final volume: 5 ml). To maintain electrophysiological performances, cell density must not exceed 80%. On the day before patch clamp experiment, 3*103 cells were seeded on coverslips in the 24-well plate and incubated at 37° C. in 5% carbon dioxide.
Extracellular solution (mM): 140 NaCl, 2.5 KCl, 1 MgCl2, 2 CaCl2, 5 Glucose, 10 HEPES, pH=7.4 with NaOH.
Pipette solution (mM): 120 K-aspartic, 10 HEPES, 5 MgCl2, 5 EGTA, 4 Na2-ATP 0.3 Na2-GTP, 14 mM Phosphocreatine disodium salt, 20 u/mL Creatine phosphor kinse pH 7.2 with KOH
Glass pipette (BF150-86-10, Sutter Instruments) was made by puller (P97, Sutter Instruments). The glass pipette was manipulated using Micro-manipulator (Carm-C-S, MCI Instruments) under the microscope (AE31EF-INV, Motic). After touching the cell, a slight suction was applied to achieve high seal (GΩ). Fast capacitance (in pF) compensation was made after high seal was achieved; after achieving high seal, the membrane was broken, Cell capacitance (in pF) compensation was made from whole-cell capacitance compensation after the whole cell mode was achieved. No leak subtraction was made.
Cell was incubated with the test article for 5 minutes, or until the current reached a steady-state level. Multiple concentrations of test article were tested. The test articles were applied gradually from low to high concentration. The test and control solutions were flown into a recording chamber mounted on the stage of an inverted microscope via a gravity-fed solution delivery system. During the experiment, solutions were withdrawn from the recording chamber by vacuum aspiration. Each concentration was tested at multiple times. Each cell acted as its own control. All tests were performed at room temperature (23-25° C.).
IKs current was measured using a pulse protocol consisting of −80 mV holding potential increment up to +60 mV over a period of 5 seconds. And then quickly repolarizedat −40 mV and maintained for 4 seconds.

[4] = HEK293 cells expressing the human ERG potassium channel

| SMILES | inhibition at 1 μM [1, 4] [%] | inhibition at 10 μM [1, 4] [%] | inhibition at 5 min, 1 μM [2] [%] | inhibition at 5 min, 10 μM [2] [%] | inhibition at 5 min, 1 μM [3] [%] | inhibition at 5 min, 10 μM [3] [%] | inhibition at 1 μM [1] [%] |
| --- | --- | --- | --- | --- | --- | --- | --- |
| Oc1ccc2ccccc2c1Cc1c(O)ccc2ccccc12 [Compound A001, 1,1′-methylenebis(naphthalen-2-ol)] | < 25 | 75 to 100 | < 25 | 75 to 100 | 50 to 75 | 75 to 100 | – |
| CN(c1c(O)ccc2ccccc12)c1c(O)ccc2ccccc12 [Compound A003, 1,1′-(methylazanediyl)bis(naphthalen-2-ol)] | 25 to 50 | 75 to 100 | < 25 | 25 to 50 | 25 to 50 | 50 to 75 | – |
| O=S(=O)(c1c(O)ccc2ccccc12)c1c(O)ccc2ccccc12 [Compound A005, 1,1′-sulfonylbis(naphthalen-2-ol)] | – | – | – | – | 25 to 50 | 25 to 50 | – |
| [O-][S+](c1c(O)ccc2ccccc12)c1c(O)ccc2ccccc12 [Compound A006, 1,1′-sulfinylbis(naphthalen-2-ol)] | < 25 | < 25 | < 25 | < 25 | < 25 | 25 to 50 | – |
| COc1ccc2ccccc2c1Cc1c(O)ccc2ccccc12 [Compound A014, 1-((2-methoxynaphthalen-1-yl)methyl)naphthalen-2-ol] | < 25 | 75 to 100 | < 25 | 50 to 75 | < 25 | < 25 | – |
| COc1ccc2ccccc2c1Cc1c(OC)ccc2ccccc12 [Compound A015, bis(2-methoxynaphthalen-1-yl)methane] | – | – | – | – | < 25 | < 25 | – |
| Oc1ccccc1Cc1ccccc1O [Compound A016, 2,2′-methylenediphenol] | – | – | – | – | < 25 | < 25 | – |
| O=S(=O)(Nc1ccc2ccccc2c1Cc1c(O)ccc2ccccc12)c1ccccc1 [Compound A026, N-(1-((2-hydroxynaphthalen-1-yl)methyl)naphthalen-2-yl)benzenesulfonamide] | < 25 | 25 to 50 | < 25 | 75 to 100 | 75 to 100 | 75 to 100 | – |
| Cc1cc2ccccc2c(Cc2c(O)ccc3ccccc23)c1O [Compound A031, 1-((2-hydroxynaphthalen-1-yl)methyl)-3-methylnaphthalen-2-ol] | < 25 | 50 to 75 | < 25 | 25 to 50 | < 25 | 50 to 75 | – |
| COc1ccc2ccccc2c1C(O)c1c(OC)ccc2ccccc12 [Compound A040, bis(2-methoxynaphthalen-1-yl)methanol] | – | – | – | – | < 25 | 25 to 50 | – |
| Oc1ccc2ccccc2c1Cc1cccc2ccccc12 [Compound A052, 1-(naphthalen-1-ylmethyl)naphthalen-2-ol] | < 25 | 75 to 100 | < 25 | 75 to 100 | 25 to 50 | – | – |
| CCN(CC)CCOc1ccc2ccccc2c1Nc1c(OC)ccc2ccccc12 [Compound A111-I-1, 2-(2-(diethylamino)ethoxy)-N-(2-methoxynaphthalen-1-yl)naphthalen-1-amine] | 75 to 100 | 75 to 100 | < 25 | – | < 25 | 75 to 100 | – |
| Oc1ccc2ccccc2c1Cc1c(OCCN2CCCC2)ccc2ccccc12 [Compound A129, 1-((2-(2-(pyrrolidin-1-yl)ethoxy)naphthalen-1-yl)methyl)naphthalen-2-ol] | 75 to 100 | – | 25 to 50 | 75 to 100 | 25 to 50 | 75 to 100 | – |
| COc1ccc2ccccc2c1Cc1c(OCC[N+]2(C)CCOCC2)ccc2ccccc12 [Compound A130-2, 4-(2-((1-((2-methoxynaphthalen-1-yl)methyl)naphthalen-2-yl)oxy)ethyl)-4-methylmorpholin-4-ium formate] | 75 to 100 | – | 50 to 75 | 75 to 100 | < 25 | 25 to 50 | – |
| CN(C)CCOc1ccc2ccccc2c1Cc1c(O)ccc2ccccc12 [Compound A134, 1-((2-(2-(dimethylamino)ethoxy)naphthalen-1-yl)methyl)naphthalen-2-ol] | 75 to 100 | 75 to 100 | < 25 | 75 to 100 | 25 to 50 | 75 to 100 | – |
| CCN(CC)CCCOc1ccc2ccccc2c1Cc1c(O)ccc2ccccc12 [Compound A135, 1-((2-(3-(diethylamino)propoxy)naphthalen-1-yl)methyl)naphthalen-2-ol] | 75 to 100 | 75 to 100 | 25 to 50 | 75 to 100 | < 25 | 75 to 100 | – |
| CCOc1ccc2ccccc2c1Cc1c(OCCN2CCCC2)ccc2ccccc12 [Compound A255, 1-(2-((1-((2-ethoxynaphthalen-1-yl)methyl)naphthalen-2-yl)oxy)ethyl)pyrrolidine] | 75 to 100 | 75 to 100 | < 25 | 75 to 100 | – | – | – |
| CC(C)Oc1ccc2ccccc2c1Cc1c(OCCN2CCCC2)ccc2ccccc12 [Compound A256, 1-(2-((1-((2-isopropoxynaphthalen-1-yl)methyl)naphthalen-2-yl)oxy)ethyl)pyrrolidine] | 50 to 75 | 75 to 100 | < 25 | 75 to 100 | – | – | – |
| COCCOc1ccc2ccccc2c1Cc1c(OCCN2CCCC2)ccc2ccccc12 [Compound A258, 1-(2-((1-((2-(2-methoxyethoxy)naphthalen-1-yl)methyl)naphthalen-2-yl)oxy)ethyl)pyrrolidine] | 75 to 100 | 75 to 100 | < 25 | 75 to 100 | – | – | – |
| CN1CCC(COc2ccc3ccccc3c2Cc2c(O)ccc3ccccc23)C1 (stereo not drawn) [Compound A262, 1-((2-((1-methylpyrrolidin-3-yl)methoxy)naphthalen-1-yl)methyl)naphthalen-2-ol] | 75 to 100 | 75 to 100 | < 25 | 75 to 100 | – | – | – |
| COc1ccc2ccccc2c1Cc1c(OCC2CCNCC2)ccc2ccccc12 [Compound A271, 4-(((1-((2-methoxynaphthalen-1-yl)methyl)naphthalen-2-yl)oxy)methyl)piperidine] | 75 to 100 | 75 to 100 | 50 to 75 | – | – | – | – |
| CCOCOc1ccc2ccccc2c1Cc1c(OCC2CCNCC2)ccc2ccccc12 [Compound A279, 4-(((1-((2-(ethoxymethoxy)naphthalen-1-yl)methyl)naphthalen-2-yl)oxy)methyl)piperidine] | 75 to 100 | 75 to 100 | < 25 | 75 to 100 | – | – | – |
| CCN(CC)CC(=O)Nc1ccc2ccccc2c1Cc1c(OC)ccc2ccccc12 [Compound A284, 2-(diethylamino)-N-(1-((2-methoxynaphthalen-1-yl)methyl)naphthalen-2-yl)acetamide] | 25 to 50 | – | < 25 | < 25 | – | – | – |
| Oc1ccc2ccccc2c1Cc1c(OCCC2CCNCC2)ccc2ccccc12 [Compound A286, 1-((2-(2-(piperidin-4-yl)ethoxy)naphthalen-1-yl)methyl)naphthalen-2-ol] | 75 to 100 | – | < 25 | 75 to 100 | – | – | – |
| CCN(CC)CCOc1ccc2ccccc2c1Cc1c(OCc2ccccc2)ccc2ccccc12 [Compound A290, 2-((1-((2-(benzyloxy)naphthalen-1-yl)methyl)naphthalen-2-yl)oxy)-N,N-diethylethan-1-amine] | 75 to 100 | 75 to 100 | 25 to 50 | 50 to 75 | – | – | – |
| c1ccc(COc2ccc3ccccc3c2Cc2c(OCCN3CCCC3)ccc3ccccc23)cc1 [Compound A291, 1-(2-((1-((2-(benzyloxy)naphthalen-1-yl)methyl)naphthalen-2-yl)oxy)ethyl)pyrrolidine] | 75 to 100 | – | < 25 | – | – | – | – |
| COc1ccc2ccccc2c1Cc1c(COCCN2CCCC2)ccc2ccccc12 [Compound A296, 1-(2-((1-((2-methoxynaphthalen-1-yl)methyl)naphthalen-2-yl)methoxy)ethyl)pyrrolidine] | – | – | < 25 | 75 to 100 | – | – | 75 to 100 |
